In patent US11241440B2, “Dihydrooxadiazine compounds for treating infections and cancer” (VALORALIA I MÁS D, SL, priority 2016, dated 2022):

Legend:
[1] = test system: N. carnea; assay: Kirby-Bauer disk diffusion susceptibility test; format: cell-based, Nocardia carnea
[2] = test system: N. cyriacigeorgica; assay: Kirby-Bauer disk diffusion susceptibility test; format: cell-based
[3] = test system: T. pulmonis; assay: Kirby-Bauer disk diffusion susceptibility test; format: cell-based, Tsukamurella pulmonis
[4] = test system: S. epidermidis; assay: Kirby-Bauer disk diffusion susceptibility test; format: cell-based, Staphylococcus epidermidis; note: key: I = intermediate activity; S = susceptibility; R = Resistance
[5] = test system: S. aureus; assay: Kirby-Bauer disk diffusion susceptibility test; format: cell-based, Staphylococcus aureus; note: key: I = intermediate activity; S = susceptibility; R = Resistance
[6] = test system: A. baumannii; assay: Kirby-Bauer disk diffusion susceptibility test; format: cell-based, Acinetobacter baumannii; note: key: I = intermediate activity; S = susceptibility; R = Resistance
[7] = test system: B. cereus; assay: Kirby-Bauer disk diffusion susceptibility test; format: cell-based, Bacillus cereus; note: key: I = intermediate activity; S = susceptibility; R = Resistance
[8] = test system: C. parapsilosis; settings: C. parapsilosis CP-007; cited from earlier work; note: key: I = intermediate activity; S = susceptibility; R = Resistance
[9] = test system: A. fumigatus; settings: A. fumigatus AFu-001; cited from earlier work; note: key: I = intermediate activity; S = susceptibility; R = Resistance
[10] = test system: A. flavus; settings: A. flavus AF-001; cited from earlier work; note: key: I = intermediate activity; S = susceptibility; R = Resistance
[11] = test system: A. terreus; settings: A. terreus ATe-001; cited from earlier work; note: key: I = intermediate activity; S = susceptibility; R = Resistance
[12] = test system: M. chelonae; assay: Kirby-Bauer disk diffusion susceptibility test; format: cell-based; settings: M. chelonae strain 870, isolation year 2011
[13] = test system: M. abscessus; assay: Kirby-Bauer disk diffusion susceptibility test; note: key: I = intermediate activity; S = susceptibility; R = Resistance; format: cell-based, Mycobacterium abscessus; settings: M. abscessus strain 690, isolation year 2012
[14] = test system: M. fortuitum; assay: Kirby-Bauer disk diffusion susceptibility test; note: key: I = intermediate activity; S = susceptibility; R = Resistance; format: cell-based; settings: M. fortuitum strain 1080, isolation year 2011
[15] = test system: equine herpes virus type 1 (EHV-1); assay: Viral titer reduction; format: cell-based; settings: 10 μg/ml
[16] = N. carnea strain 40, isolation year 2011
[17] = N. carnea strain 769, isolation year 2009
[18] = N. cyriacigeorgica strain 30, isolation year 2005
[19] = N. cyriacigeorgica strain 199, isolation year 2005
[20] = T. pulmonis strain 40, isolation year 2015
[21] = T. pulmonis strain 1991, isolation year 2009
[22] = S. epidermidis strain 188, isolation year 2009
[23] = S. epidermidis strain 982, isolation year 2006
[24] = S. aureus strain 282, isolation year 2005
[25] = S. aureus strain 890, isolation year 2010
[26] = A. baumannii strain 300, isolation year 2001
[27] = A. baumannii strain 1301, isolation year 2009
[28] = B. cereus strain 25, isolation year 2014
[29] = B. cereus strain 182, isolation year 2013

For NCC[C@H](O)C(=O)N[C@@H]1C[C@H](N)[C@@H](O[C@H]2O[C@H](CN)[C@@H](O)[C@H](O)[C@H]2O)[C@H](O)[C@H]1O[C@H]1O[C@H](CO)[C@@H](O)[C@H](N)[C@H]1O [AMK, Amikacin], the “Characteristics of strains: susceptibility or resistance” value (from here on “Characteristics of strains”) [1, 16] was “R”, the “Characteristics of strains” value [1, 17] was “S” and the “Characteristics of strains” value [2, 18] was “S”. For the same compound, the “Characteristics of strains” value [2, 19] was “R”, the “Characteristics of strains” value [3, 20] was “R” and the “Characteristics of strains” value [3, 21] was “S”. For the same compound, the “Characteristics of strains” value [4, 22] was “S”, the “Characteristics of strains” value [4, 23] was “S” and the “Characteristics of strains” value [5, 24] was “S”. For the same compound, the “Characteristics of strains” value [5, 25] was “S”, the “Characteristics of strains” value [6, 26] was “R” and the “Characteristics of strains” value [6, 27] was “S”.
For CO/N=C(\C(=O)N[C@@H]1C(=O)N2C(C(=O)O)=C(CSc3nc(=O)c(O)nn3C)CS[C@H]12)c1csc(N)n1 [CEF, Ceftriazone], the “Characteristics of strains” value [6, 26] was “R” and the “Characteristics of strains” value [6, 27] was “R”.
In the case of CCC[C@@H]1C[C@@H](C(=O)N[C@@H]([C@H]2O[C@H](SC)[C@H](O)[C@@H](O)[C@H]2O)[C@H](C)Cl)N(C)C1 [CLI, Clindamycin], the “Characteristics of strains” value [4, 22] is reported as “S”, the “Characteristics of strains” value [4, 23] is reported as “R” and the “Characteristics of strains” value [5, 24] is reported as “R”. For the same compound, the “Characteristics of strains” value [5, 25] was “R”, the “Characteristics of strains” value [7, 28] was “R” and the “Characteristics of strains” value [7, 29] was “R”.
For CO/N=C(\C(=O)N[C@@H]1C(=O)N2C(C(=O)O)=C(COC(C)=O)CS[C@H]12)c1csc(N)n1 [CTX, Cefotaxime], the “Characteristics of strains” value [1, 16] was “S”, the “Characteristics of strains” value [1, 17] was “S” and the “Characteristics of strains” value [2, 18] was “S”. For the same compound, the “Characteristics of strains” value [2, 19] was “R”, the “Characteristics of strains” value [3, 20] was “R” and the “Characteristics of strains” value [3, 21] was “S”.
For Clc1ccccc1C(c1ccccc1)(c1ccccc1)n1ccnc1 [Clotrimazole], the “Characteristics of the strains: susceptibility class” value (shortened to “Characteristics of the strains”) [8] is given as “S”, the “Characteristics of the strains” value [9] is given as “S” and the “Characteristics of the strains” value [10] is given as “S”. For the same compound, the “Characteristics of the strains” value [11] was “S”.
In the case of CC[C@H]1OC(=O)[C@H](C)[C@@H](O[C@H]2C[C@@](C)(OC)[C@@H](O)[C@H](C)O2)[C@H](C)[C@@H](O[C@@H]2O[C@H](C)C[C@H](N(C)C)[C@H]2O)[C@](C)(O)C[C@@H](C)C(=O)[C@H](C)[C@@H](O)[C@]1(C)O [ERI, Erythromycin], the “Characteristics of strains” value [1, 16] is reported as “R”, the “Characteristics of strains” value [1, 17] is reported as “R” and the “Characteristics of strains” value [2, 18] is reported as “R”. For the same compound, the “Characteristics of strains” value [2, 19] was “R”, the “Characteristics of strains” value [3, 20] was “R” and the “Characteristics of strains” value [3, 21] was “S”. The “Characteristics of strains” value [12] was “R”, the “Characteristics of strains” value [13] was “S” and the “Characteristics of strains” value [14] was “R”. For the same compound, the “Characteristics of strains” value [4, 22] was “S”, the “Characteristics of strains” value [4, 23] was “R” and the “Characteristics of strains” value [5, 24] was “R”. The “Characteristics of strains” value [5, 25] was “R”, the “Characteristics of strains” value [7, 28] was “R” and the “Characteristics of strains” value [7, 29] was “R”.
For OC(Cn1cncn1)(Cn1cncn1)c1ccc(F)cc1F [Fluconazole], the “Characteristics of the strains” value [8] is given as “S”, the “Characteristics of the strains” value [9] is given as “R” and the “Characteristics of the strains” value [10] is given as “R”. The “Characteristics of the strains” value [11] was “R”.
With Nc1nc(O)c2ncn(COC(CO)CO)c2n1 [GCV, ganciclovir] the “reduction of the titer (inhibition)” value [15] was 1.8 logarithms.
With C[C@@H](O)[C@H]1C(=O)N2C(C(=O)O)=C(SCCN=CN)C[C@H]12 [IMP, Imipenem] the “Characteristics of strains” value [1, 16] was “R”, the “Characteristics of strains” value [1, 17] was “S” and the “Characteristics of strains” value [2, 18] was “S”. For the same compound, the “Characteristics of strains” value [2, 19] was “R”, the “Characteristics of strains” value [3, 20] was “S” and the “Characteristics of strains” value [3, 21] was “S”. The “Characteristics of strains” value [12] was “R”, the “Characteristics of strains” value [13] was “R” and the “Characteristics of strains” value [14] was “R”. The “Characteristics of strains” value [6, 26] was “R” and the “Characteristics of strains” value [6, 27] was “S”.
For CC(=O)N1CCN(c2ccc(OCC3COC(Cn4ccnc4)(c4ccc(Cl)cc4Cl)O3)cc2)CC1 (stereo not shown) [Ketoconazole], the “Characteristics of the strains” value [8] is listed as “S”, the “Characteristics of the strains” value [9] is listed as “S” and the “Characteristics of the strains” value [10] is listed as “S”. For the same compound, the “Characteristics of the strains” value [11] was “S”.
For CC(=O)NC[C@H]1CN(c2ccc(N3CCOCC3)c(F)c2)C(=O)O1 [LIN, Linezolid], the “Characteristics of strains” value [1, 16] was “S”, the “Characteristics of strains” value [1, 17] was “S” and the “Characteristics of strains” value [2, 18] was “S”. For the same compound, the “Characteristics of strains” value [2, 19] was “S”, the “Characteristics of strains” value [3, 20] was “R” and the “Characteristics of strains” value [3, 21] was “S”. For the same compound, the “Characteristics of strains” value [12] was “R”, the “Characteristics of strains” value [13] was “S” and the “Characteristics of strains” value [14] was “R”.
For C[C@@H](O)[C@H]1C(=O)N2C(C(=O)O)=C(S[C@@H]3CN[C@H](C(=O)N(C)C)C3)[C@H](C)[C@H]12 [MER, Meropenem], the “Characteristics of strains” value [6, 26] was “R” and the “Characteristics of strains” value [6, 27] was “S”.
For CO[C@H]1/C=C/O[C@@]2(C)Oc3c(C)c(O)c4c(O)c(c(/C=N/N5CCN(C)CC5)c(O)c4c3C2=O)NC(=O)/C(C)=C\C=C\[C@H](C)[C@H](O)[C@@H](C)[C@@H](O)[C@@H](C)[C@H](OC(C)=O)[C@@H]1C [RIF, Rifampicin], the “Characteristics of strains” value [7, 28] was “S” and the “Characteristics of strains” value [7, 29] was “S”.
In the case of CN(C)[C@@H]1C(O)=C(C(N)=O)C(=O)[C@@]2(O)C(O)=C3C(=O)c4c(O)cccc4[C@@](C)(O)[C@H]3C[C@@H]12 [TET, Tetracycline], the “Characteristics of strains” value [4, 22] is reported as “S”, the “Characteristics of strains” value [4, 23] is reported as “S” and the “Characteristics of strains” value [5, 24] is reported as “S”. The “Characteristics of strains” value [5, 25] was “R”, the “Characteristics of strains” value [7, 28] was “R” and the “Characteristics of strains” value [7, 29] was “S”.
In the case of NC[C@H]1O[C@H](O[C@H]2[C@H](O)[C@@H](O[C@H]3O[C@H](CO)[C@@H](O)[C@H](N)[C@H]3O)[C@H](N)C[C@@H]2N)[C@H](N)C[C@@H]1O [TOB, Tobramycin], the “Characteristics of strains” value [6, 26] is reported as “S” and the “Characteristics of strains” value [6, 27] is reported as “S”.
For CN[C@H](CC(C)C)C(=O)N[C@H]1C(=O)N[C@@H](CC(N)=O)C(=O)N[C@H]2C(=O)N[C@H]3C(=O)N[C@H](C(=O)N[C@H](C(=O)O)c4cc(O)cc(O)c4-c4cc3ccc4O)[C@H](O)c3ccc(c(Cl)c3)Oc3cc2cc(c3O[C@@H]2O[C@H](CO)[C@@H](O)[C@H](O)[C@H]2O[C@H]2C[C@](C)(N)[C@H](O)[C@H](C)O2)Oc2ccc(cc2Cl)[C@H]1O [VAN, Vancomycin], the “Characteristics of strains” value [4, 22] was “S”, the “Characteristics of strains” value [4, 23] was “S” and the “Characteristics of strains” value [5, 24] was “S”. For the same compound, the “Characteristics of strains” value [5, 25] was “S”, the “Characteristics of strains” value [7, 28] was “S” and the “Characteristics of strains” value [7, 29] was “S”.
For Gentamicin, the “Characteristics of strains” value [4, 22] was “S”, the “Characteristics of strains” value [4, 23] was “R” and the “Characteristics of strains” value [5, 24] was “R”. The “Characteristics of strains” value [5, 25] was “R”.
With Penicillin the “Characteristics of strains” value [13] was “R”, the “Characteristics of strains” value [14] was “R” and the “Characteristics of strains” value [7, 28] was “S”. The “Characteristics of strains” value [7, 29] was “S”.
